What was measured:
Test in all cases: relative viability (nuclei count vs DMSO), 5 days (fraction); higher = more cells survive
Quizartinib + Trametinib = compound: CC(C)(C)c1cc(NC(=O)Nc2ccc(-c3cn4c(n3)sc3cc(OCCN5CCOCC5)ccc34)cc2)no1 [Quizartinib] + CC(=O)Nc1cccc(-n2c(=O)n(C3CC3)c(=O)c3c(Nc4ccc(I)cc4F)n(C)c(=O)c(C)c32)c1 [Trametinib] (partner 0.02 µM)
In short: (§1)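 Medians of duplicate plates are given as relative viability. That measure is the nuclei count in treated wells divided by the count in vehicle wells. Counts were taken on 4× images of lung cancer cell lines in 1536-well plates, 5 days after pin-tool dosing the day after seeding with one drug alone or a fixed anchor-drug dose plus five library-drug doses (not always all listed) in √10 steps.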

Quizartinib + Pictilisib = compound: CC(C)(C)c1cc(NC(=O)Nc2ccc(-c3cn4c(n3)sc3cc(OCCN5CCOCC5)ccc34)cc2)no1 [Quizartinib] + CS(=O)(=O)N1CCN(Cc2cc3nc(-c4cccc5[nH]ncc45)nc(N4CCOCC4)c3s2)CC1 [Pictilisib] (partner 1 µM)
In short: as §1

Quizartinib + AZD7762 = compound: CC(C)(C)c1cc(NC(=O)Nc2ccc(-c3cn4c(n3)sc3cc(OCCN5CCOCC5)ccc34)cc2)no1 [Quizartinib] + NC(=O)Nc1cc(-c2cccc(F)c2)sc1C(=O)N[C@H]1CCCNC1 [AZD7762] (partner 0.2 µM)
In short: as §1

YM155 + Phenformin = compound: COCC[n+]1c2c(n(Cc3cnccn3)c1C)C(=O)c1ccccc1C2=O [YM155] + N=C(N)NC(=N)NCCc1ccccc1 [Phenformin] (partner 250 µM)
In short: as §1

Cell Line | relative viability (Quizartinib + Trametinib; first compound 0.001 µM) | relative viability (Quizartinib + Trametinib; first compound 0.003162 µM) | relative viability (Quizartinib + Trametinib; first compound 0.01 µM) | relative viability (Quizartinib + Trametinib; first compound 0.1 µM) | relative viability (Quizartinib + Pictilisib; first compound 0.001 µM) | relative viability (Quizartinib + Pictilisib; first compound 0.003162 µM) | relative viability (Quizartinib + Pictilisib; first compound 0.01 µM) | relative viability (Quizartinib + Pictilisib; first compound 0.03162 µM) | relative viability (Quizartinib + Pictilisib; first compound 0.1 µM) | relative viability (Quizartinib + AZD7762; first compound 0.001 µM) | relative viability (Quizartinib + AZD7762; first compound 0.003162 µM) | relative viability (Quizartinib + AZD7762; first compound 0.01 µM) | relative viability (Quizartinib + AZD7762; first compound 0.03162 µM) | relative viability (Quizartinib + AZD7762; first compound 0.1 µM) | relative viability (YM155 + Phenformin; first compound 0.002 µM) | relative viability (YM155 + Phenformin; first compound 0.006325 µM) | relative viability (YM155 + Phenformin; first compound 0.02 µM) | relative viability (YM155 + Phenformin; first compound 0.06325 µM) | relative viability (Quizartinib + Trametinib; first compound 0.03162 µM)
PC-14 | 0.692 | 0.726 | 0.977 | 0.836 | 0.634 | 0.633 | 0.752 | 0.576 | 0.681 | 0.31 | 0.417 | 0.327 | 0.22 | 0.457 | 0.485 | 0.708 | 0.668 | 0.554 | –
RERF-LC-KJ | 0.797 | 0.849 | 0.942 | 0.844 | 0.468 | 0.586 | 0.735 | 0.538 | 0.515 | 0.898 | 0.954 | 0.945 | 0.98 | 0.987 | 0.386 | 0.432 | 0.462 | 0.463 | 0.62

From the supplement of paper PMC10307832
